Source: patent US20250144087A1, “USE OF VE607 FOR THE TREATMENT OF SARS-COV-2 INFECTIONS AND RELATED DISEASES” (priority 2022, published 2025)

Tests used:
[1] = system: pseudoviral particles expressing the Spike from SARS-CoV-2; assay: microbe, parasite or virus in culture; format: cell-based; conditions: SARS-CoV-2 D614G pseudovirus
[2] = system: authentic SARS-CoV-2 D614G; format: cell-based
[3] = system: pseudoviral particles bearing the Spike glycoproteins from the major VOCs (Alpha, Beta, Gamma, Delta and Omicron); format: cell-based, SARS-CoV-2
[4] = system: SARS-CoV-2 D614G Spike Y505T pseudoviral particles; format: cell-based
[5] = target: interaction of sACE2 with the full SARS-CoV-2 Spike expressed at the cell surface (Severe acute respiratory syndrome coronavirus 2, UniProt P0DTC2, D614G); format: binding
[6] = system: SARS-CoV-2 D614G Spike Q498V pseudoviral particles; format: cell-based
[7] = target: SARS-CoV-2 Spike (Severe acute respiratory syndrome coronavirus 2, UniProt P0DTC2, D614G); format: cell-based

Row | Structure (SMILES) | capacity to neutralize SARS-CoV-2 pseudovirus particles compared with commercially available VE607 [1] | IC50 [2] | IC50 values [3] | IC50 [4] | competition with sACE2 for interaction with Spike [5] | IC50 [6] | S1 shedding / trimer stability [7]
1 | O[C@@H](COc1cccc(OC[C@H](O)CN2CCCCC2)c1)CN1CCCCC1 [(R,R)-VE607, (2R,2′R)-3,3′-(1,3-phenylenebis(oxy))bis(1-(piperidin-1-yl)propan-2-ol)] | same capacity as commercially available VE607 |  |  |  |  |  | 
2 | C=CCC(/C=C/OCC(O)CN(CC)CCC)OCC(O)CN(CC)CCC (centres unmarked) [VE607] |  | 2420 nM | low micromolar range | > 40000 nM | no competition | 1800 nM | decrease shedding
3 | O[C@H](COc1cccc(OC[C@@H](O)CN2CCCCC2)c1)CN1CCCCC1 [(S,S)-VE607, (2S,2'S)-3,3′-(1,3-phenylenebis(oxy))bis(1-(piperidin-1-yl)propan-2-ol)] | same capacity as commercially available VE607 |  |  |  |  |  | 
